Laboratory results reported in ChEMBL document CHEMBL1201862, “PubChem BioAssay data set” (2004).
Activity calls are given as the source filed them.

How the values were obtained:
[1] = cytotoxicity toward NIH3T3 fibroblasts, dose response, counter-screen, cell-based, ATP luminescence, mouse fibroblasts (AID 2010); type: functional;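 further: cells exposed to compound for about 90 hours before reading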
[2] = inhibitors of intracellular T. cruzi replication, confirmation, NIH3T3 host cells, beta-gal luminescence (AID 2044); type: functional, cell-based;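 further: intracellular parasites grown in NIH/3T3 mouse fibroblasts as host cells; luminescent beta-galactosidase reporter signal from transgenic T. cruzi replicating inside host cells; inhibitors lower the luminescence signal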
[3] = target: T1, Protein RecA (Mycobacterium tuberculosis, UniProt P9WHJ3); assay: Fluorescence Cell-Free Homogeneous Dose Retest to Identify Inhibitors of RecA-Intein Splicing Activity. [Related pubchem assays (depositor defined):AID2097, AID2223, AID489010, AID492950]; type: functional
T1 sequence (P9WHJ3 whole entry): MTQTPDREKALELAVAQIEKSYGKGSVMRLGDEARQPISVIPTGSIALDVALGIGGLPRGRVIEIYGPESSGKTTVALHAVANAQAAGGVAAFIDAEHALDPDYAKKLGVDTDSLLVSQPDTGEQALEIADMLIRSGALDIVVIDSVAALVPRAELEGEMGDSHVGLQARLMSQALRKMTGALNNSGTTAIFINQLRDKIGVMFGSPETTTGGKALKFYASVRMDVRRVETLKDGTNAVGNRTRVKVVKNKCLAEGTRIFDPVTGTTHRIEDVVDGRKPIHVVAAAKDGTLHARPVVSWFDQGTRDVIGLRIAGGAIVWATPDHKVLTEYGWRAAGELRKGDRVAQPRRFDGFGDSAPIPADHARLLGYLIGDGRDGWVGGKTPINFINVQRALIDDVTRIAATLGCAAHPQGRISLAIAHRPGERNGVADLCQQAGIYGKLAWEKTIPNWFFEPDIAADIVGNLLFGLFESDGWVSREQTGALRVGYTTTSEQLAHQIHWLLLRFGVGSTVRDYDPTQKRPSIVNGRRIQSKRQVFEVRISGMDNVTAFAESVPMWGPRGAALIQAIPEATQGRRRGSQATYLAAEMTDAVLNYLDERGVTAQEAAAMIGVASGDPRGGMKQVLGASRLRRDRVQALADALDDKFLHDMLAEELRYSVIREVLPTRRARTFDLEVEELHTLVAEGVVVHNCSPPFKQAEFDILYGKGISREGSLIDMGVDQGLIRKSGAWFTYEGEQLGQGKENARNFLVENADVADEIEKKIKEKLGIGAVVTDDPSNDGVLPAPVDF

[4] = target: T2, Replicative DNA helicase DnaB (Mycobacterium tuberculosis, UniProt P9WMR3); assay: DnaB intein splicing inhibitors, dose response, biochemical, cell-free fluorescence (AID 449749); type: functional
T2 sequence (P9WMR3 whole entry): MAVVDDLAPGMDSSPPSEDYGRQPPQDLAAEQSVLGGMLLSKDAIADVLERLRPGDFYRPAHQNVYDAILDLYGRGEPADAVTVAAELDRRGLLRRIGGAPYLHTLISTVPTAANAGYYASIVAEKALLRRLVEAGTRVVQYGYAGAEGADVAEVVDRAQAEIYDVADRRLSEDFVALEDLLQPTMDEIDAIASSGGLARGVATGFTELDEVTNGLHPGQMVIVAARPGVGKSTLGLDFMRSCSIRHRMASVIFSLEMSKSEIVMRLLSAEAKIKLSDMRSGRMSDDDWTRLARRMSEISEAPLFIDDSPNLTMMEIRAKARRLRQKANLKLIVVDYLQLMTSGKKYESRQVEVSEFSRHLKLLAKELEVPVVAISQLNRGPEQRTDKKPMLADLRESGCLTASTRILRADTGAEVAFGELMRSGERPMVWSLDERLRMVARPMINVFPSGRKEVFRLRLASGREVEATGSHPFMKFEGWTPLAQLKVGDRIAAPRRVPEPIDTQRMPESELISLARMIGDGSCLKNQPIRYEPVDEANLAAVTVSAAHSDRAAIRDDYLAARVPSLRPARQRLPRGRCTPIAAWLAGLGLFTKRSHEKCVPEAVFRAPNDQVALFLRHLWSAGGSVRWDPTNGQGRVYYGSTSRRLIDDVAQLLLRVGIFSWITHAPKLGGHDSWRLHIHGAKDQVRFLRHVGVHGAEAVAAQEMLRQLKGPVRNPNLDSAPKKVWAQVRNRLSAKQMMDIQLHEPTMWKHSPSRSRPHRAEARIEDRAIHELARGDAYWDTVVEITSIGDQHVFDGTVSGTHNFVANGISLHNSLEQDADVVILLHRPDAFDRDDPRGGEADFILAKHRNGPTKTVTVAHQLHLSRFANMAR

[5] = target: Cytochrome P450 3A4 (Homo sapiens, UniProt P08684);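 further: CYP3A4 tested as one member of a cytochrome P450 panel screen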
Sequence of Cytochrome P450 3A4 (P08684 whole entry): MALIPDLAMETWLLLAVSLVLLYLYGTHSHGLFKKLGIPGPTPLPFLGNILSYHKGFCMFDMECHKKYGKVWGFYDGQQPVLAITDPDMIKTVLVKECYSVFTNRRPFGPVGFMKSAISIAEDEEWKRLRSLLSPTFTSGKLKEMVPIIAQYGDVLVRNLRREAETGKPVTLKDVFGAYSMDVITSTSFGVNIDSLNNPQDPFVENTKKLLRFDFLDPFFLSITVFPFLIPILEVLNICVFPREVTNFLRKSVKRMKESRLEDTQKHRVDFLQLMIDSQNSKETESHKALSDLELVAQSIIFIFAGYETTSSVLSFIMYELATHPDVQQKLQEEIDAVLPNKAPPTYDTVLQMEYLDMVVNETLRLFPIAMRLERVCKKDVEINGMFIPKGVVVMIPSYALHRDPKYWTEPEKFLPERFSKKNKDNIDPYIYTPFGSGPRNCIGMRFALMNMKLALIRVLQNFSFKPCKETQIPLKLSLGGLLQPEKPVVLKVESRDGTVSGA

[6] = target: Cytochrome P450 2C19 (Homo sapiens, UniProt P33261); assay: Cytochrome panel assay with activity outcomes. Panel member name: p450-cyp2c19 Compounds with AC50 equal or less than 10 uM are considered active; type: functional
Sequence of Cytochrome P450 2C19 (P33261 whole entry): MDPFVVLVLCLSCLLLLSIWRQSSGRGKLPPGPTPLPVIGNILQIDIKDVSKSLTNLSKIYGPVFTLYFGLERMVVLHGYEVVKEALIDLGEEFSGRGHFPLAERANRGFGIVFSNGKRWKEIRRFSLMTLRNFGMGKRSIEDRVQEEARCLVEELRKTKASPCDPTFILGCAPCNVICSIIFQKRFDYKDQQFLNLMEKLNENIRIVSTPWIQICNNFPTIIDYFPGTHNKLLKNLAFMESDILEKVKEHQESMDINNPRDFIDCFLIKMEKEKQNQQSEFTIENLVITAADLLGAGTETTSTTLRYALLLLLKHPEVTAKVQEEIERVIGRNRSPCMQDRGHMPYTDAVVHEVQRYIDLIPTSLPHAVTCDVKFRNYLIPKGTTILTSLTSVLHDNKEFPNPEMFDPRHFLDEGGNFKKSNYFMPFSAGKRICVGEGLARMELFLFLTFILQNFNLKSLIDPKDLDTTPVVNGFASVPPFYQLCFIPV

[7] = tested on: Streptococcus sp. 'group A'; assay: growth inhibition of control SK(-) GAS strain, dose response, counter-screen for streptokinase expression inhibitor project, luminescence, kanamycin, BacTiterGlo, confirmation (AID 1900); type: functional, organism-based
[8] = tested on: Streptococcus; assay: Group A Streptococcus viability loss, dose response, counter-screen for streptokinase expression inhibitor project, luminescence, BacTiterGlo (AID 1915); type: functional, organism-based;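 further: potency for reduction of bacterial viability or growth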

CN1CCN(CCOc2ccc(Cc3ccccc3)cc2)CC1
EC50 [1]: > 60 µM (not active)
EC50 [2]: 0.378 µM (active)

COc1ccc2ccccc2c1CNC(C)CCc1ccccc1 (configuration not stated)
EC50 [1]: > 60 µM (not active)
EC50 [2]: 2.94 µM (active)

Cc1cc(C)c2nc(N(CCCN(C)C)C(=O)c3ccc(S(=O)(=O)N4CC(C)OC(C)C4)cc3)sc2c1 (configuration not stated)
EC50 [1]: > 30 µM (not active)
EC50 [2]: 0.297 µM (active)

CC(C)(C)c1ccc(-c2nc3c(C#N)c(-c4ccc5c(c4)OCO5)ccn3n2)cc1
EC50 [1]: > 60 µM (not active)
EC50 [2]: 1.46 µM (active)

[O-][n+]1c2c(nc3c1-c1ccccc1C3O)CCCC2 (configuration not stated)
EC50 [3]: 18.6 µM (active)
AC50 [4]: 19.4 µM (active)

O=C(Oc1ccc(-n2cnnn2)cc1)c1ccco1
EC50 [3]: 12.7 µM (active)
AC50 [4]: 15.3 µM (active)

CCOC(=O)C(C)Sc1ncc(OC)c(Sc2ccc(Cl)cc2)n1 (configuration not stated)
AC50 [5]: 20 µM (inconclusive)

COc1cc(CNCCc2ccccc2)ccc1OCC(=O)NC(C)(C)C
AC50 ([6]; read-out: AC50): 28.2 µM (inconclusive)

O=C(Nc1cccc(F)c1)Nc1ccccn1
AC50 ([6]; read-out: AC50): 17.8 µM (inconclusive)

COC(=O)c1sc(N)c(C(=O)OC)c1Cn1ncc(Cl)c(Cl)c1=O
EC50 [3]: 0.541 µM (active)
AC50 [4]: 2.66 µM (active)

O=C(O)CN1CCN(Cc2ccccc2Cl)C1=O
AC50 [5]: 28.2 µM (inconclusive)

COc1ccccc1CN1CC[C@@]2(CCCN(S(C)(=O)=O)C2)C1
AC50 [5]: 20 µM (inconclusive)

COc1cccc(Cn2c(=O)c(C)nc3cnc(N4CCN(C)CC4)nc32)c1
AC50 ([6]; read-out: AC50): 39.8 µM (inconclusive)

CCCc1n[nH]c2c1C(c1ccc(OC(=O)N3CCOCC3)c(OC)c1)C(C#N)=C(N)O2 (configuration not stated)
EC50 [3]: 10 µM (active)
AC50 [4]: 32.2 µM (active)

CC(=O)NS(=O)(=O)c1ccc(NC(=S)NC(=O)C(C)(C)C)cc1
AC50 [6]: inconclusive

COc1cc(Cl)cc(/C=C/c2ccc3cccc(O)c3n2)c1OC
EC50 [7]: 0.851 µM (active)
EC50 [8]: 1.85 µM (active)

Cc1ccccc1-c1nc(-c2ccc(NC(=O)c3cccs3)cc2)no1
AC50 [5]: 39.8 µM (inconclusive)

Cn1c(=O)c(-c2ccc(Cl)cc2)nc2cnc(N3CCNCC3)nc21
AC50 [5]: 20 µM (inconclusive)

CCOC(=O)c1c(N=C(S)N2CCN(C)CC2)sc(C)c1-c1ccccc1
EC50 [1]: > 30 µM (not active)
EC50 [2]: 0.467 µM (active)
EC50 [7]: 6.75 µM (active)
EC50 [8]: > 150 µM (not active)

Cc1ccc(/C=C/c2ccc(=O)n(Cc3ccc(Cl)cc3Cl)n2)cc1
AC50 ([6]; read-out: AC50): 4.47 µM (inconclusive)

Cc1ccc(C)n1N1C(=O)/C(=C\c2ccc(Cl)cc2)SC1=S
AC50 [5]: 15.8 µM (inconclusive)

Cc1ccc(C2C(C#N)=C(N)Oc3[nH]c(-c4ccccc4)nc32)o1 (configuration not stated)
EC50 [3]: 5.11 µM (active)
AC50 [4]: 21.5 µM (active)

COc1ncc2nc(-c3cc(F)cc(F)c3)c(=O)n(C[C@H]3CCCO3)c2n1
AC50 [5]: 25.1 µM (inconclusive)
AC50 ([6]; read-out: AC50): 31.6 µM (inconclusive)

O=C(Nc1ccccc1)N1CC[C@@]2(CCCN(C(=O)c3cnccn3)C2)C1
AC50 [5]: 15.8 µM (inconclusive)

CCOc1ccc(CN2CCN(CC3=Cc4cccc(OC)c4OC3)CC2CCO)cc1 (configuration not stated)
EC50 [3]: > 380 µM (inactive)
EC50 [1]: > 60 µM (not active)
EC50 [2]: 0.303 µM (active)
AC50 [4]: > 380 µM (inactive)

CCN1CCCC1Cn1cnc2c3cc(C)ccc3nc-2c1O (configuration not stated)
AC50 [5]: 22.4 µM (inconclusive)

O=C(Nc1cccc(F)c1)N1CC[C@@]2(CCCN(C(=O)c3cc(C(F)(F)F)cc(C(F)(F)F)c3)C2)C1
AC50 ([6]; read-out: AC50): 25.1 µM (inconclusive)

COc1ccc(OC)c(C2C(C#N)=C(N)Oc3c2c(C)nn3-c2cccc(Cl)c2)c1 (configuration not stated)
EC50 [3]: 6.94 µM (active)
AC50 [4]: > 380 µM (inactive)

CN(C)CCn1c(=O)n(Cc2ccccc2)c(=O)c2c3c(sc21)CCCCC3
EC50 [1]: > 60 µM (not active)
EC50 [2]: 0.505 µM (active)

COc1ccc(-n2cc(CN(C)C(C)c3ccncn3)c(-c3cccc(F)c3)n2)cc1 (configuration not stated)
EC50 [1]: > 60 µM (not active)
EC50 [2]: 2.99 µM (active)

Cc1cc(S(=O)(=O)Nc2ccc(C(=O)NCC(c3ccco3)N3CCCC3)cc2)ccc1F (configuration not stated)
EC50 [1]: > 60 µM (not active)
EC50 [2]: 0.578 µM (active)

O=C(Oc1cccc(OC(=O)c2ccco2)c1)c1ccco1
EC50 [3]: 19.8 µM (active)
AC50 [4]: 2.88 µM (active)

Cc1ccc(-c2cn(S(=O)(=O)c3cccc([N+](=O)[O-])c3)nc2N)cc1
EC50 [1]: > 30 µM (not active)
EC50 [2]: 1.03 µM (active)

CCn1c(S)nnc1-c1ccc2ncccc2c1
AC50 [5]: 3.98 µM (inconclusive)
AC50 ([6]; read-out: AC50): 20 µM (inconclusive)

CCCCn1c(-c2cccc3ccccc23)nc2cc3nc(O)c(C(C)C)nc3cc21
EC50 [1]: > 60 µM (not active)
EC50 [2]: 1.08 µM (active)

O=C(Nc1cccc(F)c1)N1CCCC2(CCN(C(=O)c3cnccn3)CC2)C1
AC50 ([6]; read-out: AC50): 20 µM (inconclusive)

COc1ccc(C(=O)N2CCC3(CCCN(C(=O)Nc4cccc(F)c4)C3)CC2)cc1
AC50 ([6]; read-out: AC50): 39.8 µM (inconclusive)

Cc1ccccc1N1C(=O)c2ccccc2C1Nc1cccnc1 (configuration not stated)
EC50 [3]: > 380 µM (inactive)
AC50 [4]: > 380 µM (inactive)

CSc1nc(C)c2c(n1)N(c1ccc(C(F)(F)F)cc1)CC2
AC50 ([6]; read-out: AC50): 11.2 µM (inconclusive)

COc1cc(/C=C(/NC(=O)c2ccccc2Cl)C(=O)O)cc(OC)c1OC
AC50 [5]: 14.1 µM (inconclusive)

COc1cc(/C=N/NC(=S)Nc2cccc(Cl)c2C)ccc1OCC(=O)N1CC(C)OC(C)C1 (configuration not stated)
EC50 [3]: 4 µM (active)
AC50 [4]: 17.5 µM (active)

CC(C)Oc1c(Br)cc(Br)cc1/C=N/NC(N)=S
EC50 [1]: > 30 µM (not active)
EC50 [2]: 1.35 µM (active)

C/C(=N\NC(N)=S)C1=CCC2C3CC[C@H]4CC(O)CC[C@]4(C)C3CC[C@]12C (some centres not stated)
EC50 [1]: 9.97 µM (active)
EC50 [2]: 0.159 µM (active)

Brc1ccc(-c2ccc(/C=N/Nc3nc4ccccc4[nH]3)o2)cc1
EC50 [1]: > 60 µM (not active)
EC50 [2]: 1.03 µM (active)

CCOc1cc(/C=N/n2cnnc2)c(Br)cc1O
AC50 [5]: 14.1 µM (inconclusive)

CC1=C(C(=O)OCc2ccccc2)C(c2ccc(Cl)cc2)NC(=O)N1CCCCCC(=O)O (configuration not stated)
AC50 [5]: 10 µM (inconclusive)
AC50 ([6]; read-out: AC50): 39.8 µM (inconclusive)
